Experiments:
[1] = target: T1, mGluR1a (Rattus norvegicus, UniProt P23385); test: accumulation of inositol phosphates (phospholipase C activation) in transfected HEK 293 cells expressing mGluR1a; format: cell-based
T1 construct: expressed in transfected cells; host or cells: HEK 293
Method: (§1) For this purpose, the activation of phospholipase C was measured (accumulation of inositol phosphates).
(§2) The HEK 293 cells are cultured in a Dulbecco's modified Eagle medium (DMEM, Gibco BRL) to which 10% of foetal calf serum has been added, and transfected by electroporation as previously described by Gomeza et al., Molecular Pharmacology, 1996, 50:923-930 (1996).
(§3) The electroporation is carried out in a total volume of 300 μl with 10 μg of supporting DNA, plasmid DNA containing mGluR1a (0.3 μg), mGluR2 (2 μg) or mGluR4a (5 μg) and 10^7 cells.
(§4) Determination of the accumulation of inositol phosphates (IP).
(§5) The determination of the accumulation of IP in transfected cells is carried out as described by Gomeza after labelling the cells for approximately 14 hours with [^3H]-myo-inositol (23.4 Ci/mol, NEN, France).
(§6) Stimulation is carried out for 30 minutes in a medium containing 10 mM LiCl in the presence of the drugs tested. The formation of the basic IP is determined after 30 minutes of incubation in the presence of 10 mM LiCl and pyruvate glutamate transaminase (1 U/ml) degrading the glutamate (Glu) and 2 mM of pyruvate in order to avoid the possible effects of Glu released by the cells. The results are expressed in the quantity of IP product with respect to the radioactivity present in the membranes.

[2] = target: T2, mGluR2 (Rattus norvegicus, UniProt P31421); test: accumulation of inositol phosphates in transfected HEK 293 cells expressing mGluR2 co-expressed with chimeric G protein; format: cell-based
T2 construct: expressed in transfected cells; host or cells: HEK 293
Method: as §1, §2, §3
In order to allow activation of the phospholipase C by mGluR2 and mGluR4a, which effect is easier to measure than the inhibition of the production of cAMP, these receptors are co-expressed with chimeric G, Gqo5 and Gqi9 proteins, as described by Gomeza. The pharmacological profiles of these 2 receptors determined according to this method, have already been described as identical to those characterized by measuring the inhibition of the formation of cAMP.
as §4, §5, §6

[3] = target: T3, mGluR4a (Rattus norvegicus, UniProt P31423); test: accumulation of inositol phosphates in transfected HEK 293 cells expressing mGluR4a co-expressed with chimeric G protein; format: cell-based
T3 construct: expressed in transfected cells; host or cells: HEK 293
Method: as §1, §2, §3, §4, §5, §6

[4] = test system: ionotropic receptors (NMDA, AMPA and kainate receptors); test: patch clamp recording of granule cells of the cerebellum; format: cell-based, mice; conditions: ACPT 1 mM; NMDA or kainate 100 μM
Method: Culture and recording of the granule cells of the cerebellum
The granule cells of the cerebellum are cultured from 7 day-old baby mice as described by Van-Vliet, B. J., J. of Neurochemistry, 1989, .52, 1229-1239.
Recording is carried out using the technique known as a “patch clamp” in the full cell configuration and the molecules are applied using a rapid application technique.
Initially, tests were carried out in order to check whether the ACPT's were capable of activating or exercising an antagonist effect vis-à-vis the ionotropic receptors. These tests have shown that none of the ACPT enantiomers induces a current when they are placed in contact with the granule cells of the cerebellum at a concentration of 1 mM.
In the same batches, currents are on the contrary seen to be induced by NMDA (100 μM) or kainate (100 μM, which concentration allows activation of both the AMPA and kainate receptors), as envisaged given the activation of the NMDA and non-NMDA receptors.

T1 sequence (P23385 19-1199): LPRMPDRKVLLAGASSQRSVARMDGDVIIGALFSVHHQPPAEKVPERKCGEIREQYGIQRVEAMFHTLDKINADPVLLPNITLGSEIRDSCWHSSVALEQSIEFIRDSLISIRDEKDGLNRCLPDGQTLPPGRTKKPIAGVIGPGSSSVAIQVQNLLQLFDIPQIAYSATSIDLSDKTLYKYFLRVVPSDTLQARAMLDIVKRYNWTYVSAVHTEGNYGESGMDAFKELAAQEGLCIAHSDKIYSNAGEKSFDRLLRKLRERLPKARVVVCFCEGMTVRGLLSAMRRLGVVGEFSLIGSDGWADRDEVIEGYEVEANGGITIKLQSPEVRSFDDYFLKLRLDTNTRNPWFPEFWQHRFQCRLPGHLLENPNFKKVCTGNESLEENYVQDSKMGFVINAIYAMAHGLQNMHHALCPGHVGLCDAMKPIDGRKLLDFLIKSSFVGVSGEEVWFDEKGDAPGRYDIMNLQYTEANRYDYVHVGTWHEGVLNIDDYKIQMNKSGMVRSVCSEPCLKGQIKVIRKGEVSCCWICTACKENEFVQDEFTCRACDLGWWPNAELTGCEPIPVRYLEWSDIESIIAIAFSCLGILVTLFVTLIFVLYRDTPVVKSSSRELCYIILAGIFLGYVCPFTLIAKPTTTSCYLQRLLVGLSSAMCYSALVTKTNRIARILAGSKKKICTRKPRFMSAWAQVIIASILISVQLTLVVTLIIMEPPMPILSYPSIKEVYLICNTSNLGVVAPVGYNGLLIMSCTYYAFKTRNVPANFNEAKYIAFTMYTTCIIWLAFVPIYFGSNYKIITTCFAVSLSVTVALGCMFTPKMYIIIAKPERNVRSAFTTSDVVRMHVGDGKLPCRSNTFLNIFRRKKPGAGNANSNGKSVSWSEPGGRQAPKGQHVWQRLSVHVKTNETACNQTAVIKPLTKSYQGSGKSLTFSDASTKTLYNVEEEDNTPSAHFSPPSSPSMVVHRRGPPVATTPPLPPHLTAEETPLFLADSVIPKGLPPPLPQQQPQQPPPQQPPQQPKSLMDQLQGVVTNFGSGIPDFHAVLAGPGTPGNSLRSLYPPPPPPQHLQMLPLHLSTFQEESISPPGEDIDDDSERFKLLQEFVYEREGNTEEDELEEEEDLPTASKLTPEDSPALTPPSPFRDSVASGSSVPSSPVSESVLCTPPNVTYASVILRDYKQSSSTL
T2 sequence (P31421 19-872): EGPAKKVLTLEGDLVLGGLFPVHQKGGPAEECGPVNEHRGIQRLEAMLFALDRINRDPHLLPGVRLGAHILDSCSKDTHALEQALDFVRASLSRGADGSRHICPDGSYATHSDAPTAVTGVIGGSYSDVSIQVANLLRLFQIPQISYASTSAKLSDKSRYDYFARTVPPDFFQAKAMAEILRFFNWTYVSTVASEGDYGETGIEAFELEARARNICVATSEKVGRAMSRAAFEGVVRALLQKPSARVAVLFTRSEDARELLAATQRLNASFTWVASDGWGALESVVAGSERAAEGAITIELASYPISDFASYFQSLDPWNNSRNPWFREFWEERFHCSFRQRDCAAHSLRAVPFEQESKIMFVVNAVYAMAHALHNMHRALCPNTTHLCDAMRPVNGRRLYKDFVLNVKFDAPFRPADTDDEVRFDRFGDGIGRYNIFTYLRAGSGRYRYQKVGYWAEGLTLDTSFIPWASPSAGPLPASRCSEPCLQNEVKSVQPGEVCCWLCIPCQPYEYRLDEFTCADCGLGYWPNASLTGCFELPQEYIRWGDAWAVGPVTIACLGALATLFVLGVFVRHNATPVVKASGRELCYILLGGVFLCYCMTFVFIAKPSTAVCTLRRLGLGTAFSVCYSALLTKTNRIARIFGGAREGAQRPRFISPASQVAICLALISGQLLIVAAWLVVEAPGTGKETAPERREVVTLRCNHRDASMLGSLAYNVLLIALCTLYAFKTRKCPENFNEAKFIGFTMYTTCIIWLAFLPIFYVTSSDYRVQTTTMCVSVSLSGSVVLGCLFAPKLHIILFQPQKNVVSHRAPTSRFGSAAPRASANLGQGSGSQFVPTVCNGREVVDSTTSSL
T3 sequence (P31423 33-912): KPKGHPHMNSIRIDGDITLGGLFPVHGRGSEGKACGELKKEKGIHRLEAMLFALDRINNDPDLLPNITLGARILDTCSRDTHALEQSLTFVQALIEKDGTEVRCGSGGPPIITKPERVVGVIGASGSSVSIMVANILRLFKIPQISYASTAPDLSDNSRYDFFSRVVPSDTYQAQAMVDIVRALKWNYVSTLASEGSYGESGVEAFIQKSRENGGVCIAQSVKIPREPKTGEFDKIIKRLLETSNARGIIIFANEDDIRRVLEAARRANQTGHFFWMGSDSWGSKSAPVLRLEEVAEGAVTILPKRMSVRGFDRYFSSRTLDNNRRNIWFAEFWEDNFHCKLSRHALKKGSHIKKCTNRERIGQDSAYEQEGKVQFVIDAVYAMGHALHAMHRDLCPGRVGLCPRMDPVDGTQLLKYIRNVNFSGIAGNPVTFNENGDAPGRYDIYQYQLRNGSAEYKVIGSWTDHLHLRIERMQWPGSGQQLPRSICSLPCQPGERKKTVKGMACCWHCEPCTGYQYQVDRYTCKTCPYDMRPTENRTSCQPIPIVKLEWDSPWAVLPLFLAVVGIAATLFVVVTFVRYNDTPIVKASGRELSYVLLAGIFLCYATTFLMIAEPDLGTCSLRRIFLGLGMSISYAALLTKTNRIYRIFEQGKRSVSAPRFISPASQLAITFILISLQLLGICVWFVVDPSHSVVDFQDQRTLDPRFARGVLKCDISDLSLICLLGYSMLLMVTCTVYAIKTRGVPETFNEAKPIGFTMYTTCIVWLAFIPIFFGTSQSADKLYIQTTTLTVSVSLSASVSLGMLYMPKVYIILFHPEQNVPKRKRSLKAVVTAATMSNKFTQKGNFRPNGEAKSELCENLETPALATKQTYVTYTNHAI

Kb ([1]; HEK 293 cells, IP accumulation induced by Glu, Shild representation, read-out: mGluR1a KB (antagonist effect)): > 300 µM | EC50 ([1]; HEK 293 cells, IP accumulation, read-out: mGluR1a EC50 (agonist effect)): > 3000 µM | inhibition of the responses induced by Glu in cells expressing mGluR2, in words [2]: inhibit the responses induced by Glu | Kb ([2]; HEK 293 cells, IP accumulation induced by Glu, Shild representation, read-out: mGluR2 KB (antagonist effect)): > 300 µM | EC50 ([2]; HEK 293 cells, IP accumulation, read-out: mGluR2 EC50 (agonist effect)): > 3000 µM | Kb ([3]; IP accumulation induced by Glu, Shild representation, read-out: mGluR4a KB (antagonist effect)): > 3000 µM | EC50 ([3]; IP accumulation, read-out: mGluR4a EC50 (agonist effect)): 40 ± 8 µM
SMILES: NC1(C(=O)O)CC(C(=O)O)C(C(=O)O)C1 (racemic) [(=)-ACPT-III, 1-amino-cyclopentane-1,3,4 tricarboxylic acid]
inhibition of the formation of IP induced by Glu in cells expressing mGluR1a, in words [1]: inhibit the formation of the IP's induced by the Glu | inhibition of responses induced by NMDA or kainate, in words [4]: No significant inhibition

— US6433014B1, “Compounds consisting in particular of effectors of the central nervous system receptors sensitive excitatory amino acids, preparation and biological applications” (Centre National de la Recherche Scientifique (C.N.R.S.), priority 1997, dated 2002)
